One substance from US11408022B2, “Preparation method of anti-oxidation polypeptide” (Fu Zhou University, priority 2018, dated 2022) can be followed below.

What all share (assay type): biochemical
A short description of assay [1]: Oxygen radical absorption capacity.
The nature of assay [2]: DPPH radical elimination activity. As to conditions: 1 mg/mL. The method, then: 1 mL of the sample of different concentrations was respectively well mixed with 1 mL of DPPH solution ([…], prepared using 95% ethanol). The mixed solutions were kept still in shadow at room temperature for 30 min, and then the absorbance was determined at the wavelength of 517 nm. 1 mL of 95% ethanol solution in replacement of the DDPPH solution was used to prepare the sample reference group; and the control group included 1 mL of DPPH solution and 1 mL of 95% ethanol solution. The elimination rate of DPPH radicals of the sample was calculated using the following equation: […]
In the equation, • Ai—absorbance of the sample group • Aj—absorbance of the sample reference group • A0—absorbance of the control group
Background: DPPH is a stable violet radical that fades when it is reduced.

A short description of assay [3]: ABTS radical elimination activity. As to conditions: 1 mg/mL. The procedure:
7 mM ABTS mother solution and 2.45 mM potassium peroxydisulfate solution were respectively prepared and stored for later use. The two solutions were mixed in a ratio of 1:1 before use. The mixed solution was placed still at room temperature for 16 h, and then diluted with phosphate buffer solution (5 mM, 7.4 pH) to obtain an ABTS radical solution with absorbance of 0.70±0.02 at the wavelength of 734 nm. The ABTS radical solution was mixed with samples of different concentrations and equal volume; after 10 min reaction at room temperature, the absorbance of the mixtures was determined at the wavelength of 734 nm; and finally, the mixtures were zero-set using the phosphate buffer solution (5 mM, 7.4 pH). In the control group, distilled water was used to replace samples. The elimination rate of ABTS radicals of the sample was calculated using the following equation: […]
In the equation: • Acontrol—absorbance of the control group • Asample—absorbance of the sample

Where no end group is shown, it is not given here.

With “GAAVAL [anti-oxidation polypeptide, hexapeptide isolated from alkali protease hydrolysate of black shark skins]”, the “Oxygen radical absorption capacity” value in assay [1] is 527.53±65.15 μmol Trolox/g peptide. Further, in assay [2], the “Elimination rate of DPPH radicals” value is recorded as 67.00±0.24%. Moreover, the “Elimination rate of ABTS radicals” value in assay [3] is 64.12±0.20%.
